Source: ChEMBL document CHEMBL1201862, “PubChem BioAssay data set” (2004)
Several values for one entry are separate records, joined by “and”; a condition that tells them apart may be missing. Equal entries are not always repeated.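 Tested at 5 concentrations; 48 h exposure; 96-well plates; endpoints linearly interpolated, else capped at highest concentration. GI50 marks 50% less growth.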 Activity calls are given as the source filed them. Cut-off read from the data, not from the text of the source: active = GI50 up to about 1.1 µM and inactive = higher.

What was measured:
Test in all cases: DTP human tumour cell line panel, 48 h
U-251 = tested on: U-251
NCI/ADR-RES = tested on: NCI/ADR-RES
SN12C = tested on: SN12C
T47D = tested on: T47D
SF-295 = tested on: SF-295
PC-3 = tested on: PC-3
HCC 2998 = tested on: HCC 2998
HCT-15 = tested on: HCT-15
A549 = tested on: A549
LOX IMVI = tested on: LOX IMVI
COLO 205 = tested on: COLO 205
OVCAR-3 = tested on: OVCAR-3
EKVX = tested on: EKVX
SK-MEL-28 = tested on: SK-MEL-28
SK-MEL-2 = tested on: SK-MEL-2
MDA-MB-435 = tested on: MDA-MB-435
RPMI-8226 = tested on: RPMI-8226
SW-620 = tested on: SW-620
NCI-H23 = tested on: NCI-H23
SK-MEL-5 = tested on: SK-MEL-5
K562 = tested on: K562
DU-145 = tested on: DU-145
NCI-H522 = tested on: NCI-H522
SF-268 = tested on: SF-268
UACC-257 = tested on: UACC-257
SNB-75 = tested on: SNB-75
ACHN = tested on: ACHN
SK-OV-3 = tested on: SK-OV-3
UO-31 = tested on: UO-31
HL-60 = tested on: HL-60
RXF 393 = tested on: RXF 393
MDA-MB-231 = tested on: MDA-MB-231
MDA-N = tested on: MDA-N
CAKI-1 = tested on: CAKI-1
HCT-116 = tested on: HCT-116
786-0 = tested on: 786-0
SNB-19 = tested on: SNB-19
Hs-578T = tested on: Hs-578T
KM12 = tested on: KM12
TK-10 = tested on: TK-10
M14 = tested on: M14
OVCAR-5 = tested on: OVCAR-5
HT-29 = tested on: HT-29
SR = tested on: SR
HOP-92 = tested on: HOP-92
A498 = tested on: A498
IGROV-1 = tested on: IGROV-1
HOP-62 = tested on: HOP-62
NCI-H226 = tested on: NCI-H226
MCF7 = tested on: MCF7
Malme-3M = tested on: Malme-3M
CCRF-CEM = tested on: CCRF-CEM
OVCAR-8 = tested on: OVCAR-8
MOLT-4 = tested on: MOLT-4
UACC-62 = tested on: UACC-62
SF-539 = tested on: SF-539
NCI-H460 = tested on: NCI-H460
BT-549 = tested on: BT-549
OVCAR-4 = tested on: OVCAR-4

Q: Which results are given for COC(=O)C1OC(O[C@H]2CC[C@]3(C)[C@H]4CC=C5[C@@H]6CC(C)(C)CC[C@]6(C(=O)OC6OCC(O)C(O)C6OC6OC(C)C(OC7OCC(O)C(O)C7O)C(O)C6O)[C@H](O)C[C@@]5(C)[C@]4(C)CC[C@H]3C2(C)C)C(O)C(O)C1O (some centres undefined)?
A: GI50 (U-251): 5.55 µM (inactive) and 6.11 µM (inactive); GI50 (NCI/ADR-RES): 4.08 µM (inactive) and 3.24 µM (inactive); GI50 (SN12C): 1.84 µM (inactive) and 1.85 µM (inactive); GI50 (T47D): 8.28 µM (inactive) and 5.32 µM (inactive); GI50 (SF-295): 3.95 µM (inactive) and 3.91 µM (inactive); GI50 (PC-3): 4.45 µM (inactive) and 4.68 µM (inactive); GI50 (HCC 2998): 2.82 µM (inactive) and 1.82 µM (inactive); GI50 (HCT-15): 12.9 µM and 13.7 µM; GI50 (A549): 3.9 µM (inactive) and 3.47 µM (inactive); GI50 (LOX IMVI): 3.36 µM (inactive) and 6.43 µM (inactive); GI50 (COLO 205): 1.66 µM (inactive) and 1.83 µM (inactive); GI50 (OVCAR-3): 11.8 µM (inactive) and 14.8 µM (inactive); GI50 (EKVX): 3.27 µM (inactive) and 2.82 µM (inactive); GI50 (SK-MEL-28): 1.87 µM (inactive) and 2.13 µM (inactive); GI50 (SK-MEL-2): 2.7 µM (inactive) and 2.9 µM (inactive); GI50 (MDA-MB-435): 2.32 µM (inactive) and 1.95 µM (inactive); GI50 (RPMI-8226): 4.51 µM (inactive) and 5.06 µM (inactive); GI50 (SW-620): 13.2 µM (inactive) and 11.7 µM (inactive); GI50 (NCI-H23): 2.14 µM (inactive) and 2.24 µM (inactive); GI50 (SK-MEL-5): 6.61 µM (inactive) and 13.1 µM (inactive); GI50 (K562): 6.28 µM (inactive) and 10.8 µM (inactive); GI50 (DU-145): 9.73 µM (inactive) and 13.4 µM (inactive); GI50 (NCI-H522): 1.78 µM (inactive) and 2.63 µM (inactive); GI50 (SF-268): 9.29 µM (inactive) and 9.2 µM (inactive); GI50 (UACC-257): 2.9 µM (inactive) and 5.79 µM (inactive); GI50 (SNB-75): 4.81 µM (inactive) and 8.53 µM (inactive); GI50 (ACHN): 4.35 µM (inactive) and 4.5 µM (inactive); GI50 (SK-OV-3): 11.4 µM (inactive) and 13.4 µM (inactive); GI50 (UO-31): 1.71 µM (inactive) and 2.04 µM (inactive); GI50 (HL-60): 2.63 µM (inactive) and 2.56 µM (inactive); GI50 (RXF 393): 11.3 µM (inactive) and 14.9 µM (inactive); GI50 (MDA-MB-231): 1.91 µM (inactive) and 2.36 µM (inactive); GI50 (MDA-N): 1.87 µM (inactive) and 3.43 µM (inactive); GI50 (CAKI-1): 2.61 µM (inactive) and 4 µM (inactive); GI50 (HCT-116): 4.08 µM (inactive) and 4.86 µM (inactive); GI50 (786-0): 5.56 µM (inactive) and 8.55 µM (inactive); GI50 (SNB-19): 4.56 µM (inactive) and 7.24 µM (inactive); GI50 (Hs-578T): 16.4 µM (inactive) and 16.3 µM (inactive); GI50 (KM12): 3.48 µM (inactive) and 3.61 µM (inactive); GI50 (TK-10): 8.15 µM (inactive) and 9.68 µM (inactive); GI50 (M14): 2.75 µM (inactive) and 3.91 µM (inactive); GI50 (OVCAR-5): 4.93 µM (inactive) and 6.59 µM (inactive); GI50 (HT-29): 2.77 µM (inactive) and 3.73 µM (inactive); GI50 (SR): 3.14 µM (inactive) and 3.86 µM (inactive); GI50 (HOP-92): 1.88 µM (inactive) and 2.09 µM (inactive); GI50 (A498): 1.75 µM (inactive) and 1.86 µM (inactive); GI50 (IGROV-1): 15.8 µM (inactive) and 11.7 µM (inactive); GI50 (HOP-62): 8.85 µM (inactive) and 6.27 µM (inactive); GI50 (NCI-H226): 7.13 µM (inactive) and 3.94 µM (inactive)

Q: How did the GI50 (U-251) turn out when Nn1c(S)nnc1-c1ccccc1Nc1ccccc1-c1nnc(S)n1N was run?
A: The GI50 was > 50 µM (inactive).

Q: What about the GI50 (NCI/ADR-RES) of the same compound?
A: The GI50 was > 50 µM (inactive).

Q: What about the GI50 (SF-295) of the same compound?
A: The GI50 was > 50 µM (inactive).

Q: And the GI50 (PC-3)?
A: The GI50 was > 50 µM (inactive).

Q: And the GI50 (MCF7)?
A: Its GI50 is > 50 µM (inactive).

Q: What about the GI50 (HCC 2998) of the same compound?
A: The GI50 was > 50 µM (inactive).

Q: What about the GI50 (HCT-15) of the same compound?
A: The GI50 was > 50 µM.

Q: And the GI50 (LOX IMVI)?
A: The GI50 was > 50 µM (inactive).

Q: What about the GI50 (Malme-3M) of the same compound?
A: The GI50 was > 50 µM (inactive).

Q: And the GI50 (COLO 205)?
A: The GI50 was > 50 µM (inactive).

Q: And the GI50 (OVCAR-3)?
A: The GI50 was > 50 µM (inactive).

Q: And the GI50 (CCRF-CEM)?
A: The GI50 was > 50 µM (inactive).

Q: And the GI50 (EKVX)?
A: Its GI50 is > 50 µM (inactive).

Q: What about the GI50 (OVCAR-8) of the same compound?
A: Its GI50 is > 50 µM (inactive).

Q: And the GI50 (SK-MEL-28)?
A: Its GI50 is > 50 µM (inactive).

Q: What about the GI50 (MOLT-4) of the same compound?
A: The GI50 was > 50 µM (inactive).

Q: What about the GI50 (SK-MEL-2) of the same compound?
A: The GI50 was > 50 µM (inactive).

Q: And the GI50 (MDA-MB-435)?
A: Its GI50 is > 50 µM (inactive).

Q: What about the GI50 (RPMI-8226) of the same compound?
A: Its GI50 is 41.8 µM (inactive).

Q: What about the GI50 (UACC-62) of the same compound?
A: Its GI50 is > 50 µM (inactive).

Q: And the GI50 (SW-620)?
A: Its GI50 is > 50 µM (inactive).

Q: And the GI50 (NCI-H23)?
A: Its GI50 is > 50 µM (inactive).

Q: What about the GI50 (SK-MEL-5) of the same compound?
A: The GI50 was > 50 µM (inactive).

Q: What about the GI50 (K562) of the same compound?
A: The GI50 was > 50 µM (inactive).

Q: And the GI50 (DU-145)?
A: The GI50 was > 50 µM (inactive).

Q: What about the GI50 (NCI-H522) of the same compound?
A: Its GI50 is > 50 µM (inactive).

Q: And the GI50 (SF-268)?
A: The GI50 was > 50 µM (inactive).

Q: And the GI50 (UACC-257)?
A: Its GI50 is > 50 µM (inactive).

Q: And the GI50 (SF-539)?
A: The GI50 was > 50 µM (inactive).

Q: What about the GI50 (SNB-75) of the same compound?
A: Its GI50 is > 50 µM (inactive).

Q: And the GI50 (ACHN)?
A: Its GI50 is > 50 µM (inactive).

Q: And the GI50 (UO-31)?
A: The GI50 was > 50 µM (inactive).

Q: What about the GI50 (HL-60) of the same compound?
A: The GI50 was > 50 µM (inactive).

Q: And the GI50 (RXF 393)?
A: The GI50 was > 50 µM (inactive).

Q: And the GI50 (NCI-H460)?
A: Its GI50 is > 50 µM (inactive).

Q: And the GI50 (HCT-116)?
A: Its GI50 is > 50 µM (inactive).

Q: What about the GI50 (786-0) of the same compound?
A: Its GI50 is > 50 µM (inactive).

Q: What about the GI50 (SNB-19) of the same compound?
A: Its GI50 is > 50 µM (inactive).

Q: What about the GI50 (KM12) of the same compound?
A: The GI50 was > 50 µM (inactive).

Q: And the GI50 (TK-10)?
A: Its GI50 is > 50 µM (inactive).

Q: What about the GI50 (M14) of the same compound?
A: Its GI50 is > 50 µM (inactive).

Q: And the GI50 (OVCAR-5)?
A: Its GI50 is > 50 µM (inactive).

Q: What about the GI50 (HT-29) of the same compound?
A: The GI50 was > 50 µM (inactive).

Q: And the GI50 (SR)?
A: The GI50 was > 50 µM (inactive).

Q: And the GI50 (HOP-92)?
A: The GI50 was > 50 µM (inactive).

Q: What about the GI50 (IGROV-1) of the same compound?
A: Its GI50 is > 50 µM (inactive).

Q: And the GI50 (BT-549)?
A: The GI50 was > 50 µM (inactive).

Q: What about the GI50 (HOP-62) of the same compound?
A: The GI50 was > 50 µM (inactive).

Q: What about the GI50 (OVCAR-4) of the same compound?
A: Its GI50 is > 50 µM (inactive).

Q: What about the GI50 (NCI-H226) of the same compound?
A: The GI50 was > 50 µM (inactive).
